Common to all, as to assay type: binding
Assay [1] deals with T1, BRD4(1) (Homo sapiens, UniProt O60885).
T1 construct: BRD4-BD1 was expressed and purified as described previously; made in house
In words: BROMOscan Kd determination BRD4(1). As for the experimental part:
(§1) Bromodomain profiling was carried out on the basis of BROMOscan™. This platform accounted for the indirect determination of the dissociation constants between 19 bromodomains and the compound of formula (13), by binding competition against a reference immobilized ligand. Compounds that bind the bromodomain prevent its binding to the immobilized ligand thus reducing the amount of protein captured. […] Hits are identified by measuring the amount of bromodomain captured in test versus control samples. Bromodomain assays for Kd determination: T7 phage strains displaying bromodomains were grown in parallel in 24-well blocks in an E. coli host derived from the BL21 strain. E. coli were grown to log-phase and infected with T7 phage from a frozen stock (multiplicity of infection=0.4) and incubated with shaking at 32° C. until lysis (90-150 minutes). The lysates were centrifuged (5,000×g) and filtered (0.2 μm) to remove cell debris. […] The liganded beads were blocked with excess biotin and washed with blocking buffer (SeaBlock (Pierce), 1% BSA, 0.05% Tween 20, 1 mM DTT) to remove unbound ligand and to reduce non-specific phage binding. […] Test compounds were prepared as 1000× stocks in 100% DMSO. Kds were determined using an 11-point 3-fold compound dilution series with one DMSO control point. All compounds for Kd measurements are distributed by acoustic transfer (non-contact dispensing) in 100% DMSO. The compounds were then diluted directly into the assays such that the final concentration of DMSO was 0.09%. All reactions performed in polypropylene 384-well plates. Each was a final volume of 0.02 ml. […] The bromodomain concentration in the eluates was measured by qPCR. […] All compounds for Kd measurements are distributed by acoustic transfer (non-contact dispensing) in 100% DMSO. The compounds were then diluted directly into the assays such that the final concentration of DMSO was 0.09%. Most Kds were determined using a compound top concentration=10,000 nM. If the initial Kd determined was <0.169 nM (the lowest concentration tested), the measurement was repeated with a serial dilution starting at a lower top concentration. Binding Constants (Kds): Binding constants (Kds) were calculated with a standard dose-response curve using the Hill equation: The Hill Slope was set to −1. Curves were fitted using a non-linear least square fit with the Levenberg-Marquardt algorithm.

In assay [2] the target is T1, BRD4(1). In words: Isothermal titration calorimetry, dissociation constant KD BRD4(1). How it is done:
BRD4-BD1 was expressed and purified as described previously (Filippakopoulos et al, (2012), Cell 149(1): […]) with the exception of the final buffer for crystallization and ITC analysis (20 mM Hepes/NaOH pH 7.5, 150 mM NaCl). Crystals were grown in the presence of 3.5 M Na-Formate (pH 7.5) at a protein concentration of 10 mg/ml and a ligand concentration of 2 mM added directly to the protein prior to crystallization from a 100 mM stock solution in DMSO. Data were collected at 100K using either a Rigaku HF-007 rotating anode X-ray generator equipped with VariMaxHF optics and a Saturn944 CCD detector or a mar345 image plate respectively at λ=1.54179 Å or at the PXI beamline at the Swiss Light Source at λ=1.000 Å with a Pilatus detector. Data processing and reduction was done with iMOSFLM (Leslie AGW PH (2007), Evolving Methods for Macromolecular Crystallography 245, 41.51), POINTLESS, and SCALA (Kabsch W (2010) Xds. Acta crystallographica. Section D, Biological crystallography 66(Pt 2):125-132; Bruker (2008) SADABS, SAINT and XPREP (Bruker AXS Inc., Madison, Wis., USA); Collaborative Computational Project N (1994) The CCP4 suite: programs for protein crystallography, Acta crystallographica, Section D, Biological crystallography 50(Pt 5):760-763), or with XDS, XSCALE, XDSCONV (Evans P (2006), Scaling and assessment of data quality, Acta crystallographica, Section D, Biological crystallography 62(Pt 1):72-82), and XPREP (Evans P R (2011), An introduction to data reduction: space-group determination, scaling and intensity statistics, Acta crystallographica, Section D, Biological crystallography 67(Pt 4):282-292).
Data were obtained in discrete titration experiments with an injection volume of 12 μl per injection. Subsequently, the heats per injection were calculated as integrals and after normalization against the molar concentrations plotted against the molar ratio as implemented in Microcal Origin. Finally, data were fitted according to a single set of sites binding model with
The dissociation constant Kd, is commonly used to describe the affinity between a ligand L and a protein, i.e. how tightly a ligand binds to a particular protein. The dissociation constant has molar units which correspond to the concentration of ligand at which the binding site on a particular protein is half occupied, i.e. the concentration of the ligand at which the concentration of protein with ligand bound equals the concentration of protein with no ligand bound. The smaller the dissociation constant, the higher the affinity between ligand and protein.
In general terms: Isothermal titration calorimetry measures the heat released or taken up as one component is titrated into another.

A further assay concerns the target T2, BRPF1B (Homo sapiens, UniProt P55201).
T2 construct: dissociation constants KD for two bromodomains (BRD4(1) and BRPF1B)
T2 sequence (P55201 628-732 limits assumed): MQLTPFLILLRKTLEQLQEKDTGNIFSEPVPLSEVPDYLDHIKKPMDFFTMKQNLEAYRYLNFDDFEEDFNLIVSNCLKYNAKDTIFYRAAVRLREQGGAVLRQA
In words: Dissociation constant KD BRPF1B.

The next assay has as its target T3, BRPF1 (Homo sapiens, UniProt P55201).
T3 construct: T7 phage strains displaying bromodomains were grown; host or cells: T7 phage in E. coli derived from BL21
T3 sequence (P55201 628-732 limits assumed): T2 sequence (P55201 628-732 limits assumed)
In words: BROMOscan Kd determination BRPF1. How it is done:
as §1

For the next assay, the target named is T4, BRD7 (Homo sapiens, UniProt Q9NPI1).
T4 construct: T7 phage strains displaying bromodomains were grown; host or cells: T7 phage in E. coli derived from BL21
T4 sequence (Q9NPI1 131-235 limits assumed): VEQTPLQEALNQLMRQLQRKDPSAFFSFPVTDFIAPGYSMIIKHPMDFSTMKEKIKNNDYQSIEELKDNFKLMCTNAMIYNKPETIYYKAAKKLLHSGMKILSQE
In words: BROMOscan Kd determination BRD7. How it is done:
as §1

The next assay has as its target T5, CECR2 (Homo sapiens, UniProt Q9BXF3).
T5 construct: T7 phage strains displaying bromodomains were grown; host or cells: T7 phage in E. coli derived from BL21
Put plainly: BROMOscan Kd determination CECR2. How it is done:
as §1

The target of another assay is T6, BRDT(1) (Homo sapiens, UniProt Q58F21).
T6 construct: T7 phage strains displaying bromodomains were grown; host or cells: T7 phage in E. coli derived from BL21
Put plainly: BROMOscan Kd determination BRDT(1). As for the experimental part: as §1

The target in a further assay is T7, BRD9 (Homo sapiens, UniProt Q9H8M2).
T7 construct: T7 phage strains displaying bromodomains were grown; host or cells: T7 phage in E. coli derived from BL21
T7 sequence (Q9H8M2 136-240 limits assumed): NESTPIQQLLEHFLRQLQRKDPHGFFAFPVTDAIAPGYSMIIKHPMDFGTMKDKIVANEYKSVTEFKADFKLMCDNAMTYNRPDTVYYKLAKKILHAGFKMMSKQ
In words: BROMOscan Kd determination BRD9. How it is done: as §1

The target of another assay is T8, BRD2(1) (Homo sapiens, UniProt P25440).
T8 construct: T7 phage strains displaying bromodomains were grown in parallel; made in house; host or cells: T7 phage grown in an E. coli host derived from the BL21 strain
T8 sequence (P25440 74-180 limits assumed): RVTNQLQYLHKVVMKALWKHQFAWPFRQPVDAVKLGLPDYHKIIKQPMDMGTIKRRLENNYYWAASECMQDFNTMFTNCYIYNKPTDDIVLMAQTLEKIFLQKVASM
Put plainly: BROMOscan Kd determination BRD2(1). As for the experimental part:
Bromodomain profiling was carried out on the basis of BROMOscan™. This platform accounted for the indirect determination of the dissociation constants between 19 bromodomains and the compound of formula (13), by binding competition against a reference immobilized ligand. Compounds that bind the bromodomain prevent its binding to the immobilized ligand thus reducing the amount of protein captured. […] Hits are identified by measuring the amount of bromodomain captured in test versus control samples. Bromodomain assays for Kd determination: T7 phage strains displaying bromodomains were grown in parallel in 24-well blocks in an E. coli host derived from the BL21 strain. E. coli were grown to log-phase and infected with T7 phage from a frozen stock (multiplicity of infection=0.4) and incubated with shaking at 32° C. until lysis (90-150 minutes). The lysates were centrifuged (5,000×g) and filtered (0.2 μm) to remove cell debris. […] Kds were determined using an 11-point 3-fold compound dilution series with one DMSO control point. […] The bromodomain concentration in the eluates was measured by qPCR. […] Most Kds were determined using a compound top concentration=10,000 nM. […] Binding Constants (Kds): Binding constants (Kds) were calculated with a standard dose-response curve using the Hill equation: The Hill Slope was set to −1. […]

Like-named read-outs stand apart in the source and are kept apart here.

T5 sequence (Q9BXF3 434-538 limits assumed): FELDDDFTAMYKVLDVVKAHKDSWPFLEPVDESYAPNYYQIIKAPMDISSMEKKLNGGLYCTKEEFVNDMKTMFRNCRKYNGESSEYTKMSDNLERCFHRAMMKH

In general, Kd refers to the concentration at which binding is half-saturated. `CCCc1[nH]c(-c2cc(N)ccc2Cl)c2c1C(=O)CCCC2` [Compound 26, 1-(5-Amino-2-chlorophenyl)-3-propyl-5,6,7,8-tetrahydrocyclohepta[c]pyrrol-4(2H)-one]: the Kd was 6.9 µM at BRD4(1) [1]; 6.9 µM at BRD4(1) [2]; 7 µM at BRPF1B; 7 µM on BRPF1; 1.1 µM on BRD7; over 10 µM on CECR2. In addition, the figures for the Kd at BRDT(1) and on BRD9 were 6.1 µM and 0.15 µM, respectively.
In the case of `CCCCc1[nH]c(-c2cc(N)ccc2Cl)c2c1C(=O)CCCC2` [Compound 27, 1-(5-Amino-2-chlorophenyl)-3-butyl-5,6,7,8-tetrahydrocyclohepta[c]pyrrol-4(2H)-one], the Kd on BRD4(1) [1] (Table 3 compound 27), on BRD4(1) [2], on BRPF1B, on BRPF1 (Table 3 compound 27), on BRD7 (Table 3 compound 27) and on CECR2 (Table 3 compound 27) was over 10 µM in each case. Further, the Kd is over 10 µM on BRDT(1) (Table 3 compound 27) and 0.8 µM at BRD9 (Table 3 compound 27).
Turning to `COc1ccc(S(=O)(=O)N2CCOCC2)cc1NC(=O)c1[nH]c(C)c2c1CCCCC2=O` [Compound 13, N-(2-methoxy-5-(morpholinosulfonyl)phenyl)-3-methyl-4-oxo-2,4,5,6,7,8-hexahydrocyclohepta[c]pyrrole-1-carboxamide], the Kd at BRD4(1) [1] came to 0.06 µM; at BRD4(1) [2] it was 0.0778 µM; at BRD2(1) it was 0.045 µM; on BRPF1, 0.52 µM; on BRD7, 0.085 µM; at BRDT(1) it was 0.67 µM. This compound gave a Kd at BRD9 of 0.067 µM.
For `Cc1[nH]c(-c2cc(N)ccc2Cl)c2c1C(=O)CCCC2` [Compound 23], the Kd was determined as 0.25 µM on BRD4(1) [1]; 0.166 µM at BRPF1B; 0.13 µM at BRD2(1); 0.13 µM on BRPF1; 0.43 µM at BRD7; 0.97 µM at CECR2. The Kd turned out to be 0.24 µM on BRDT(1) and 0.067 µM on BRD9.
